Results from publication doi:10.1101/2023.03.24.534094v2 (biorxiv, 2023).
Read-outs that look alike come from different tables or passages of the source.

Columns and labels:
[1] = biological target: MST4 (Homo sapiens, UniProt Q9P289); assay: biochemical; conditions: for ΔTm at 10 µM: read-out: dTm MST4
[2] = biological target: SIK1 (Homo sapiens, UniProt P57059); assay: NanoBRET target engagement; type: biochemical; conditions: lysed mode, HEK293T, tracer displacement
[3] = biological target: SIK2 (Homo sapiens, UniProt Q9H0K1); assay: NanoBRET target engagement; type: cell-based; conditions: intact mode, HEK293T, 37 °C, 2 h, tracer displacement
Sequence of SIK2 (Q9H0K1 whole entry): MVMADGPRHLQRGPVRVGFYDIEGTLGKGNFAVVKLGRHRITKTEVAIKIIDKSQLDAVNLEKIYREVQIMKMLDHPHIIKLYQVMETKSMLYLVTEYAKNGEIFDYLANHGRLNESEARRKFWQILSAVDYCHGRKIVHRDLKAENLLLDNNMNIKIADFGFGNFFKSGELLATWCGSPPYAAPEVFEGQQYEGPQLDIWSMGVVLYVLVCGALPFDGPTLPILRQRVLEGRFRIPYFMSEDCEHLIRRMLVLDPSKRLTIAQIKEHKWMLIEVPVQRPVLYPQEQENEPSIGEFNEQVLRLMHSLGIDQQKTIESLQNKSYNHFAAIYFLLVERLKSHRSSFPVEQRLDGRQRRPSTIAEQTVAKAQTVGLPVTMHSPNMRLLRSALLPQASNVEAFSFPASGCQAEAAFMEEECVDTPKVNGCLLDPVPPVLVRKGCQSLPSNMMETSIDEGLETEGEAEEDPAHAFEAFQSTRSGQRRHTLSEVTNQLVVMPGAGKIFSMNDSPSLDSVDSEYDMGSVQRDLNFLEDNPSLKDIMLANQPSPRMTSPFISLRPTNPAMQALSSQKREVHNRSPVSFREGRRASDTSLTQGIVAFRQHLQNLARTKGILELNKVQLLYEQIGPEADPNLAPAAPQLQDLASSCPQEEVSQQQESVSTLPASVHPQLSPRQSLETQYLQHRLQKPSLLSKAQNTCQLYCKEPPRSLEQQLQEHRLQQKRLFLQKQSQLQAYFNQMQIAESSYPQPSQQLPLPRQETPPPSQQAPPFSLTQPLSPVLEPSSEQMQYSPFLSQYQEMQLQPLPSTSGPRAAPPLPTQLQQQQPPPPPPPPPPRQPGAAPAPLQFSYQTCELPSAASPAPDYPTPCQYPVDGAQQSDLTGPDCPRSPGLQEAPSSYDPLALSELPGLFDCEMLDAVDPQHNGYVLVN

[4] = biological target: SIK3 (Homo sapiens, UniProt Q9Y2K2); assay: NanoBRET target engagement; type: cell-based; conditions: intact mode, HEK293T, 37 °C, 2 h, tracer displacement
Sequence of SIK3 (Q9Y2K2 whole entry): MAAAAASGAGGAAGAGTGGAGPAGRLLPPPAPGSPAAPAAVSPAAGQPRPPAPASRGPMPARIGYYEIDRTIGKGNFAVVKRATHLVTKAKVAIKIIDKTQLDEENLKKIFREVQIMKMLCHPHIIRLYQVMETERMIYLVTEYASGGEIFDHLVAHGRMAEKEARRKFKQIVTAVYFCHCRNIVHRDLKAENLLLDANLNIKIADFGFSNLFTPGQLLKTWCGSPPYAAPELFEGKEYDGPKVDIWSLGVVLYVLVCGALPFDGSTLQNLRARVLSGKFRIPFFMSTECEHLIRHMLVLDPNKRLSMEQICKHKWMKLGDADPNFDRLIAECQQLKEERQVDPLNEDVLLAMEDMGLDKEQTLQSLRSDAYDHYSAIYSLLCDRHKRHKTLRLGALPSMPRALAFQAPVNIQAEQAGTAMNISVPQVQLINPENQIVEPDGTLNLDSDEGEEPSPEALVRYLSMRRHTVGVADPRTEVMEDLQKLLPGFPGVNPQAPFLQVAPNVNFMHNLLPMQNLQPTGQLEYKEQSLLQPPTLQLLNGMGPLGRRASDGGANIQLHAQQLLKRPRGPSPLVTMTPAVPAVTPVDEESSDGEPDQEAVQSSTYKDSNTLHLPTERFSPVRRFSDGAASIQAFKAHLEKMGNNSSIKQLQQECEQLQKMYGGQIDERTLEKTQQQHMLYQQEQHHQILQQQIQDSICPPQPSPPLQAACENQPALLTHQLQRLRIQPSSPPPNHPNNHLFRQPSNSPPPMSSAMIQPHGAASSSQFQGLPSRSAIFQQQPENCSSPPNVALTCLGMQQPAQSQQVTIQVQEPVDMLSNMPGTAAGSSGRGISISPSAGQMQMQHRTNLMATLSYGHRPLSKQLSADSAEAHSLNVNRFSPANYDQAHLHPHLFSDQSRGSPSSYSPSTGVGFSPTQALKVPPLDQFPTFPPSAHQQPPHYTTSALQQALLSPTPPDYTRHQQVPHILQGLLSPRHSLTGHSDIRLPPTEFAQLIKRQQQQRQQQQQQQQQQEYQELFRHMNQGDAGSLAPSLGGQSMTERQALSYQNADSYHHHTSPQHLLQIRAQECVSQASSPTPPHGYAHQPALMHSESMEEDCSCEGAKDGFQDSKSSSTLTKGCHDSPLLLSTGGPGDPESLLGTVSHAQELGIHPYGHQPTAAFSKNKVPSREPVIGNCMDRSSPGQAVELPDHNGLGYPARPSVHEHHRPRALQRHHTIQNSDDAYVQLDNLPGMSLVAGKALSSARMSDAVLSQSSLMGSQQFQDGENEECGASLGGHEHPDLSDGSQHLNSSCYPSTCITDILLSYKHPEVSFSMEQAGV

[5] = biological target: T1, MST2 (Homo sapiens, UniProt Q13188); assay: biochemical; conditions: for ΔTm at 10 µM: read-out: dTm MST2
T1 sequence (Q13188 1-491): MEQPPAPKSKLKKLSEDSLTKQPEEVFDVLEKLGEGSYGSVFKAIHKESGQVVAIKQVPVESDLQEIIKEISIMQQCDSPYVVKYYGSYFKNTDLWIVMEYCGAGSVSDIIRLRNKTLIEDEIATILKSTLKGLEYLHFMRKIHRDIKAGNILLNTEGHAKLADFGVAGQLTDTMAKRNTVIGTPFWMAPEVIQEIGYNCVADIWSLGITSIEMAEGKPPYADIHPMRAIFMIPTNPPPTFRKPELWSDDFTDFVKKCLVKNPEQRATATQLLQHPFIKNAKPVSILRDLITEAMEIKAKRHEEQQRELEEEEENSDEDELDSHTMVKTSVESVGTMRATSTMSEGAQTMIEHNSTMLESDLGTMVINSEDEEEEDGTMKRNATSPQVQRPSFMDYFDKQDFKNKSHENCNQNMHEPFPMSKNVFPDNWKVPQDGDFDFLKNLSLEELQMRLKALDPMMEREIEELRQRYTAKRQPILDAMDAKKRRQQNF

[6] = biological target: T2, MST1 (Homo sapiens, UniProt Q13043); assay: biochemical; conditions: for ΔTm at 10 µM: read-out: dTm MST1
T2 sequence (Q13043 1-487): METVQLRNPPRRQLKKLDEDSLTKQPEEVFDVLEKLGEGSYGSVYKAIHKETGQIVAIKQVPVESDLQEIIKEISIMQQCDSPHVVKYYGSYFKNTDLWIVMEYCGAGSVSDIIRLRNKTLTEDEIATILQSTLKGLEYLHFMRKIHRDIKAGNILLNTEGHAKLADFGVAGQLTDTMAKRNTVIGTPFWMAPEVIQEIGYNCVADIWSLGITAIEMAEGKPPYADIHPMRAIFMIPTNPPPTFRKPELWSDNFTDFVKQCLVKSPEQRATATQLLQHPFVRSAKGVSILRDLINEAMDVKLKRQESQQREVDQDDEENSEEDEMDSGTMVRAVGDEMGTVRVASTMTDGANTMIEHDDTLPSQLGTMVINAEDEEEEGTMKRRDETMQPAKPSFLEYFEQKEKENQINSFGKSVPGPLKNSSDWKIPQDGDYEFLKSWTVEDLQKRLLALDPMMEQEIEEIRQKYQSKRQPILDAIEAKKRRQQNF

[7] = biological target: T3, EpHB1 (Homo sapiens, UniProt P54762); assay: NanoBRET target engagement; type: cell-based
T3 sequence (P54762 18-984): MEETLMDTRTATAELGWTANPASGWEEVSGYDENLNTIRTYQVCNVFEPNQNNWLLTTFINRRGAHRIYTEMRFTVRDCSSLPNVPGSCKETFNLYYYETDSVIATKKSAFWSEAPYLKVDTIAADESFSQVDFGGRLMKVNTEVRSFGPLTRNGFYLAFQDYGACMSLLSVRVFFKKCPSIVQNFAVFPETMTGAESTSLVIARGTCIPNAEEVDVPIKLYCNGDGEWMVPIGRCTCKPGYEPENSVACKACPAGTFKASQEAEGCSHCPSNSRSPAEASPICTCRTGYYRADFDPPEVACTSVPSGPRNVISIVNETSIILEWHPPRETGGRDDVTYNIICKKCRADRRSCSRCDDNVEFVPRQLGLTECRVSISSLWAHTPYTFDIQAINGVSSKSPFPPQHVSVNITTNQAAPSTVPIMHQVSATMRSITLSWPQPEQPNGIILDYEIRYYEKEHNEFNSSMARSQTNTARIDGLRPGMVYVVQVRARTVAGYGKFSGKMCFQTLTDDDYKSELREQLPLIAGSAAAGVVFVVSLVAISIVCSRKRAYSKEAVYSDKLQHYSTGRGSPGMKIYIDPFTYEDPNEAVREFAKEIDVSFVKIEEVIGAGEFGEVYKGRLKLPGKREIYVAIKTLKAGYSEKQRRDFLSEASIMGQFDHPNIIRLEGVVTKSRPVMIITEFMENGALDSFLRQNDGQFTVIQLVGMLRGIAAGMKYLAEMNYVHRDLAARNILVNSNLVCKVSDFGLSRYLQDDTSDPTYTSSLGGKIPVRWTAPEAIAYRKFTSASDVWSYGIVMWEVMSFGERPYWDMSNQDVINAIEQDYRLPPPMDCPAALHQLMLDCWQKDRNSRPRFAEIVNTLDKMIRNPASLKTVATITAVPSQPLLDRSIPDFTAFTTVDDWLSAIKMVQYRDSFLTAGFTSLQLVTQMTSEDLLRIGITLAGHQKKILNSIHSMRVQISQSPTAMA

Sequence of SIK1 (P57059 whole entry): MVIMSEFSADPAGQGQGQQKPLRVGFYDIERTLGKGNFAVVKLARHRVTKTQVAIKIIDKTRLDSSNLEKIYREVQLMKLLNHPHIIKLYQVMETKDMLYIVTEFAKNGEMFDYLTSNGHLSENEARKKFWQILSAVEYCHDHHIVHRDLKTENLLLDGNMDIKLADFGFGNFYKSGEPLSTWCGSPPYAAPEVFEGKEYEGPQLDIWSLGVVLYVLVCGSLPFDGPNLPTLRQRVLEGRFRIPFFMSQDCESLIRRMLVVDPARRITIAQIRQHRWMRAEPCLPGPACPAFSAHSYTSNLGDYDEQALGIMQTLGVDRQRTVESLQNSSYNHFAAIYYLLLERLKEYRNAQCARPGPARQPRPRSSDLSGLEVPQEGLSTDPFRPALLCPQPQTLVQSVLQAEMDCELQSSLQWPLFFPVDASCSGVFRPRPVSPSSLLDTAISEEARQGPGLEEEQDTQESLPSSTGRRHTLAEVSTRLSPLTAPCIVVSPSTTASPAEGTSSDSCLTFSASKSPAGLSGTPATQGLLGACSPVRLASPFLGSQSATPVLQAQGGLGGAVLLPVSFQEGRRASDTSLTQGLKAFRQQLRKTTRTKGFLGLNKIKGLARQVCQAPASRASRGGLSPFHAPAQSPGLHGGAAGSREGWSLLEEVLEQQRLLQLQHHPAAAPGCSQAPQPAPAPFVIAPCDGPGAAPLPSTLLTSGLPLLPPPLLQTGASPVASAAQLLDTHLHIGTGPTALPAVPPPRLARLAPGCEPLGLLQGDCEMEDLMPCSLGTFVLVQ
Sequence of MST4 (Q9P289 whole entry): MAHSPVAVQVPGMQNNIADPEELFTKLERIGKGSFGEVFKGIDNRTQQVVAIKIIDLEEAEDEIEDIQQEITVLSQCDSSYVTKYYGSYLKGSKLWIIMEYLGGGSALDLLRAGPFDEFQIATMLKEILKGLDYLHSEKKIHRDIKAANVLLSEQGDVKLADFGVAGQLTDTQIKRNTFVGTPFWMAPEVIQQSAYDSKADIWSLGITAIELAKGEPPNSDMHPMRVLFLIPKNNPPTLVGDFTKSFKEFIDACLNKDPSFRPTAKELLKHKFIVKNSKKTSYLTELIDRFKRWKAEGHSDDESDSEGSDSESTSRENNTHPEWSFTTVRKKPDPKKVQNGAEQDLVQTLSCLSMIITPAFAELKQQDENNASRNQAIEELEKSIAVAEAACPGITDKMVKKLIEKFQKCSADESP

`CNc1ncc2cc(-c3cc(Cl)ccc3Br)c(=O)n(CCCCN)c2n1` [compound 10, 8-(4-Aminobutyl)-6-(2-bromo-5-chlorophenyl)-2-(methylamino)pyrido[2,3-d]pyrimidin-7(8H)-one] was tested, and the ΔTm at 10 µM [1] was 1.8 °C, the IC50 [2] was 228 ± 142 nM and the IC50 [3] was 1100 ± 100 nM. The IC50 [4] was 290 ± 42 nM, the ΔTm at 10 µM [5] was 1.4 °C and the ΔTm at 10 µM [6] was 1.5 °C.

In the case of `CNc1ncc2cc(-c3ccc(-c4cccc(C)n4)cc3Cl)c(=O)n(CC3OCC(N)CO3)c2n1` (stereo not drawn) [compound 2, G-5555], the “dTm MST4” value ([1]; 10 µM, binder) is reported as 6.4 °C, the “dTm MST2” value ([5]; 10 µM, binder) is reported as 5.0 °C and the “dTm MST1” value ([6]; 10 µM, binder) is reported as 4.2 °C.

Work on `CNc1ncc2cc(-c3cc(Cl)ccc3Cl)c(=O)n(CCCCN)c2n1` [compound 8, 8-(4-Aminobutyl)-6-(2,5-dichlorophenyl)-2-(methylamino)pyrido[2,3-d]pyrimidin-7(8H)-one] yielded a ΔTm at 10 µM [1] of 2 °C, an IC50 [2] of 277 ± 123 nM and an IC50 [3] of 665 ± 40 nM. The IC50 [4] was 113 ± 95 nM, the ΔTm at 10 µM [5] was 1.4 °C and the IC50 [7] was 302 ± 26 nM. It also gave a ΔTm at 10 µM [6] of 1.6 °C.

Compound `CNc1ncc2cc(-c3cc(Br)ccc3Cl)c(=O)n(CCCCN)c2n1` [compound 6, 8-(4-Aminobutyl)-6-(5-bromo-2-chlorophenyl)-2-(methylamino)pyrido[2,3-d]pyrimidin-7(8H)-one] has a ΔTm at 10 µM [1] of 2.2 °C, an IC50 [2] of 239 ± 46 nM and an IC50 [3] of 1400 ± 100 nM. For the same compound, the IC50 [4] was 352 ± 11 nM, the ΔTm at 10 µM [5] was 2.5 °C and the ΔTm at 10 µM [6] was 1.9 °C.

`CNc1ncc2cc(-c3cc(F)ccc3F)c(=O)n(CCCCN)c2n1` [compound 5, 8-(4-Aminobutyl)-6-(2,5-difluorophenyl)-2-(methylamino)pyrido[2,3-d]pyrimidin-7(8H)-one] gave a ΔTm at 10 µM [1] of 0.9 °C, an IC50 [2] of 72 ± 11 nM and an IC50 [3] of 89 ± 2 nM. It also gave an IC50 [4] of 18 ± 2 nM, a ΔTm at 10 µM [5] of 0.6 °C and an IC50 ([7]; intact mode, HEK293T, 37 °C, 2 h, tracer displacement) of 632 ± 10 nM. The ΔTm at 10 µM [6] was 0.9 °C.

`CNc1ncc2cc(-c3ccccc3Cl)c(=O)n(CCCCN)c2n1` [compound 4, 8-(4-Aminobutyl)-6-(2-chlorophenyl)-2-(methylamino)pyrido[2,3-d]pyrimidin-7(8H)-one] was tested, and the ΔTm at 10 µM [1] was 2.6 °C, the IC50 [2] was 20 ± 7 nM and the IC50 [3] was 74 ± 2 nM. It also gave an IC50 [4] of 25 ± 3 nM, a ΔTm at 10 µM [5] of 2.2 °C and an IC50 [7] of 78 ± 2 nM. It also gave a ΔTm at 10 µM [6] of 1.9 °C.

Compound `CNc1ncc2cc(-c3cc(C(F)(F)F)ccc3Cl)c(=O)n(CCCCN)c2n1` [compound 9, 8-(4-Aminobutyl)-6-(2-chloro-5-(trifluoromethyl)phenyl)-2-(methylamino)pyrido[2,3-d]pyrimidin-7(8H)-one] has a ΔTm at 10 µM [1] of 0.4 °C, an IC50 [2] of 1000 ± 400 nM and an IC50 [3] of 6100 ± 100 nM. It also gave an IC50 [4] of 2500 ± 100 nM, a ΔTm at 10 µM [5] of 0.8 °C and a ΔTm at 10 µM [6] of 0.9 °C.

`CNc1ncc2cc(-c3cc(Br)ccc3Cl)c(=O)n(C[C@H]3OC[C@H](N)CO3)c2n1` [compound 7, 8-(((2r,5r)-5-Amino-1,3-dioxan-2-yl)methyl)-6-(5-bromo-2-chlorophenyl)-2-(methylamino)pyrido[2,3-d]pyrimidin-7(8H)-one] showed a ΔTm at 10 µM [1] of 0.6 °C, an IC50 [2] of 2400 ± 1100 nM and an IC50 [3] of 4400 ± 100 nM. It also gave an IC50 [4] of 1000 ± 300 nM, a ΔTm at 10 µM [5] of 1.5 °C and a ΔTm at 10 µM [6] of 1.7 °C.

Work on `CNc1ncc2cc(-c3cc(Br)ccc3Br)c(=O)n(CCCCN)c2n1` [compound 11, 8-(4-Aminobutyl)-6-(2,5-dibromophenyl)-2-(methylamino)pyrido[2,3-d]pyrimidin-7(8H)-one] yielded a ΔTm at 10 µM [1] of 1.5 °C, an IC50 [2] of 429 ± 117 nM and an IC50 [3] of 2700 ± 100 nM. The IC50 [4] was 1200 ± 100 nM, the ΔTm at 10 µM [5] was 1.4 °C and the ΔTm at 10 µM [6] was 1.6 °C.

For `CNc1ncc2cc(-c3cc(F)c(-c4cccc(C)n4)cc3F)c(=O)n(CCCCN)c2n1` [compound 12, 8-(4-Aminobutyl)-6-(2,5-difluoro-4-(6-methylpyridin-2-yl)phenyl)-2-(methylamino)pyrido[2,3-d]pyrimidin-7(8H)-one], the ΔTm at 10 µM [1] was 7.6 °C, the IC50 [2] was 6 ± 2 nM and the IC50 [3] was 31 ± 1 nM. It also gave an IC50 [4] of 4 ± 0.1 nM, a ΔTm at 10 µM [5] of 5.2 °C and a ΔTm at 10 µM [6] of 2.8 °C.
